The results in this text go back to patent publication US7129074B2, “Nucleoside triphosphate diphosphohydrolase (NTPDase 8) and uses thereof” (Université Laval, priority 2002, dated 2006).

Test [1] has as its target T1, mouse NTPDase8 (Mus musculus, UniProt Q8K0L2).
T1 construct: expressed in transfected cells; host or cells: COS-7
T1 sequence (Q8K0L2 1-497): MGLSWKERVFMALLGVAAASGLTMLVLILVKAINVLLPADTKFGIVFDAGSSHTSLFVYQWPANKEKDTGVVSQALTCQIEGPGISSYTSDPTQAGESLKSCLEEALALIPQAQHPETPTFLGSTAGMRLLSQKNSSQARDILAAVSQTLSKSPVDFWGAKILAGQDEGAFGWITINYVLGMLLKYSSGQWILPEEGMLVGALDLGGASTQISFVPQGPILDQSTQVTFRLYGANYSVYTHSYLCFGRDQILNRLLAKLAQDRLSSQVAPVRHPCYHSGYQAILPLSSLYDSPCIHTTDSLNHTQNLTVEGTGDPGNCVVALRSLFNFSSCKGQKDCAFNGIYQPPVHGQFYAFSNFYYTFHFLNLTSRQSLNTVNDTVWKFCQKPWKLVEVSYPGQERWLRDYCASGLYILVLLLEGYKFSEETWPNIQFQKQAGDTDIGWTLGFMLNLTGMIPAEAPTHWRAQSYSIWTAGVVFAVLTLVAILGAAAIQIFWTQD
Kind of test: NTPDase activity measurement (Pi release, malachite green) on protein extracts of COS-7 cells transfected with mouse NTPDase8. Format: biochemical. The settings on record: for Vmax,app / Km: substrate of NTPDase8, Woolf-Augustinsson-Hofstee plot, mean ± SEM; for Km: read-out: Km,app. The method, then:
COS-7 cells were transfected in 10 cm plates using Lipofectamine™ (Invitrogen), as previously described (Kaczmarek et al, 1996, JBC, 271:33116–33122). Briefly, cells were incubated for 5 h at 37° C. in DMEM in absence of foetal bovine serum (FBS) with 6 μg of plasmid DNA and 24 μl of Lipofectamine™ reagent. The reaction was stopped by adding an equal volume of DMEM containing 20% FBS and cell were harvested 40–44 h later. For protein preparation, transfected cells were washed three times with Tris-saline buffer at 4° C., harvested by scraping in 95 mM NaCl, 0.1 mM PMSF and 45 mM Tris, pH 7.5, and washed twice by 300×g centrifugation for 10 min at 4° C. Cells were resuspended in the harvesting buffer containing 10 μg/ml aprotinin and sonicated. Nucleus and cellular debris were discarded by another centrifugation as described above and the supernatants stored at −80° C. until used. Protein concentration was estimated by the Bradford microplate assay using bovine serum albumin (BSA) as a standard of reference (Bradford, 1976, Analyt. Biochem., 72:248–254).
(§1) Enzyme activity in the protein fractions was determined as previously described (Sévigny et al, 1997, Biochimica Biophysica Acta 1334:73–88) Briefly, enzyme activity was measured at 37° C. in 0.5 ml of the following incubation medium: […] either with 100 mM Tris, pH 7.4 or with 100 mM MES, pH 6.4 or as indicated. Enzyme preparation was added to the incubation mixture and pre-incubated at 37° C. for 3 min. Reaction was started by the addition of 0.5 mM substrate (ATP, ADP, UTP, UDP or AMP) and stopped after 20 min by the addition of 0.125 ml of the malachite green reagent (Baykov and Evtushenko, 1988, Analytical Biochemistry 171:266–270). Activity on intact cells was carried out in similar conditions in 24 wells plates, also 40–44 h after transfection, with the addition of 145 mM NaCl to the incubation medium. The reaction was stopped by taking 0.2 ml of the reaction mixture to a new tube containing 50 μl of malachite reagent. The inorganic phosphate […] released from the hydrolysis of exogenous nucleotides was measured according to Baykov et al. (Baykov and Evtushenko, 1988, Analytical Biochemistry 171:266–270)
Optimum pH was determined in the presence of 5 mM CaCl2 with the following buffers: 100 mM acetate (pH 4.0–5.5), 100 mM MES (pH 5.5–7.0), 100 mM Tris (pH 7.0–9.0) or 100 mM glycine pH (9.0–11.0). In the indicated experiments CaCl2 was substituted by MgCl2. To remove traces of divalent cations 1 mM EDTA plus 1 mM EGTA was added to the medium. One unit of enzyme activity corresponds to the release of 1 μmole Pi/min at 37° C. (LeBel et al., 1980, J. Biol. Chem. 255:1227–1233). All experiments were performed in triplicate with the appropriate controls.

The target of the next test is T2, human NTPDase8 (Homo sapiens, UniProt Q5MY95, L62P).
T2 construct: expressed in transfected cells; host or cells: COS-7
T2 sequence (Q5MY95 1-495 L62P): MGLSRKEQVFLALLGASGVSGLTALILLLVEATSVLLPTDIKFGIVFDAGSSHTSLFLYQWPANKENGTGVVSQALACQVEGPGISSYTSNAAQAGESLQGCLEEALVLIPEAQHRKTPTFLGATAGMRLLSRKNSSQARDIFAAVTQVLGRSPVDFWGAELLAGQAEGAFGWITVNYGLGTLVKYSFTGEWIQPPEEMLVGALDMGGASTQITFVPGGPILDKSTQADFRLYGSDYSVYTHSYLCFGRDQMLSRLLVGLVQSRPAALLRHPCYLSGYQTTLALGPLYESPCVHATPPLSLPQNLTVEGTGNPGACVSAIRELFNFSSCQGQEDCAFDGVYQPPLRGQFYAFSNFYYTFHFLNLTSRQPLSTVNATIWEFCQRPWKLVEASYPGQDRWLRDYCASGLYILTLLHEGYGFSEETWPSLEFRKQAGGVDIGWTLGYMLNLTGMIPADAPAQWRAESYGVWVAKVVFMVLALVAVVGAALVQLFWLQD
The test is described as follows: Activity on protein extracts from human NTPDase8 transient transfected COS-7 cells. It is filed as biochemical. Conditions: substrate hydrolysis by human NTPDase8 protein extracts. The procedure: as §1
The activity of the protein extracts of human NTPDase8 was carried out as described previously herein and the results are shown in Table 3.

Test [2] concerns the target T1, mouse NTPDase8. The test is described as follows: HPLC separation and quantification of nucleotides hydrolysed by mouse NTPDase8. Format: biochemical. The method, then:
For HPLC analysis, activity assays were performed in 5 mM CaCl2 and 100 mM MES, pH 6.4 as described above with the following modifications. Aliquots of 20 μL were taken at different time points from the enzymatic reaction and activity stopped by the addition of an equal volume of ice-cold 1 M perchloric acid. The samples were centrifuged for 5 min at 1000×g at 4° C. Supernatants were neutralized with 1 M KOH (4° C.), centrifuged for a subsequent 5 min at 1000×g and then lipids were removed by liquid-liquid extraction with n-heptane (5:1, v/v). An aliquot of 20 μL from the lipid extracted sample was applied to a column connected to a HPLC system.
Adenine nucleotides (ATP, ADP and AMP) were separated on a 15 cm×4.6 mm, 3 μm SUPELCOSIL™ LC-18-T column (Supelco, Bellefonte, Pa., USA) with a mobile phase composed of 25 mM TBA, 5 mM EDTA, 100 mM KH2PO4/K2HPO4, pH 7.0 and 2% methanol (v/v), at a flow-rate of 1 ml/min. […] Combined adenine and uridine nucleotide samples were analyzed with the latter column with a mobile phase composed of 16.7 mM TBA, 3.3 mM EDTA, 66.7 mM KH2PO4/K2HPO4, pH 7.0. The flow rate was 0.5 ml/min for the first 20 min and 1 ml/min up to 90 min. The nucleotides were detected by UV absorption at 260 nm and identified by comparison of the retention time and UV spectrum with the appropriate standards.

Test [3] concerns platelet aggregation in PRP. The test is described as follows: ADP-induced platelet aggregation in human PRP (optic density at 600 nm). Format: cell-based. Conditions: 4 uM ADP; PRP preincubated 25 seconds with 250 ug mNTPDase8 or 3 ug mNTPDase1 protein extracts. The procedure:
Cell membrane preparation and platelet aggregation assays were performed as described before.
PRP prepared from human donors was tested for platelet activation in the presence of exogenous ADP and protein extracts from COS cell transfected with pcDNA3.11V5-His encoding mouse NTPDase8 (mNTPDase8) or mouse (mNTPDase1) (FIG. 6). Optic density at 600 nm was recorded over a period of 8 minutes. Before the addition of 4 uM ADP, PRP was preincubated for 25 seconds with 250 ug mNTPDase8 or 3 ug mNTPDase1 protein extracts, 250 ug untransfected COS cells or without protein extract (agonist: 4 uM ADP). Note that 4 uM ADP induced high levels of platelet aggregation in control samples.

For `Nc1ncnc2c1ncn2[C@@H]1O[C@H](COP(=O)(O)O)[C@@H](O)[C@H]1O` [AMP], the “hydrolysis by NTPDase8” value on mouse NTPDase8 [1] (in the presence of Ca2+) was “did not hydrolyze”. For the same molecule, on human NTPDase8, the Activity worked out at 2 ± 0.6 nmols Pi/min/mg.
In the case of `O=c1ccn([C@@H]2O[C@H](COP(=O)(O)OP(=O)(O)OP(=O)(O)O)[C@@H](O)[C@H]2O)c(=O)[nH]1` [UTP], at mouse NTPDase8 [1], the “Vmax,app” value is listed as 1.13 ± 0.02 U/mg of protein and the Km stood at 47 ± 1 µM. Further, on human NTPDase8, the Activity is 271 ± 35 nmols Pi/min/mg.
Regarding `O=c1ccn([C@@H]2O[C@H](COP(=O)(O)OP(=O)(O)O)[C@@H](O)[C@H]2O)c(=O)[nH]1` [UDP], at mouse NTPDase8 [1], the “Vmax,app” value is recorded as 1.08 ± 0.06 U/mg of protein and the Km came to 171 ± 15 µM. Further, the “remaining concentration after 120 min” value on mouse NTPDase8 [2] (formed from UTP incubated with NTPDase8 extracts) came out at 140 µM. For the same molecule, the Activity on human NTPDase8 worked out at 38 ± 5 nmols Pi/min/mg.
Regarding `Nc1ncnc2c1ncn2[C@@H]1O[C@H](COP(=O)(O)OP(=O)(O)OP(=O)(O)O)[C@@H](O)[C@H]1O` [ATP], at mouse NTPDase8 [1], the “Vmax,app” value is on record as 0.82 ± 0.02 U/mg of protein and the Km came to 13 ± 6 µM. The same molecule displayed an Activity at human NTPDase8 of 264 ± 7 nmols Pi/min/mg.
On to `Nc1ncnc2c1ncn2[C@@H]1O[C@H](COP(=O)(O)OP(=O)(O)O)[C@@H](O)[C@H]1O` [ADP], for which, at mouse NTPDase8 [1], the “Vmax,app” value is listed as 0.95 ± 0.08 U/mg of protein and the Km is 41 ± 6 µM. For the same molecule, the “hydrolysis after 120 min” value on mouse NTPDase8 [2] (formed from ATP incubated with NTPDase8 extracts) is “completely hydrolyzed”. For the same molecule, the Activity at human NTPDase8 came out at 55 ± 15 nmols Pi/min/mg.

B1: mNTPDase8: mouse nucleoside triphosphate diphosphohydrolase 8, SEQ ID NO:1, protein extract from transfected COS-7 cells (protein)
chain: MGLSWKERVFMALLGVAAASGLTMLVLILVKAINVLLPADTKFGIVFDAGSSHTSLFVYQWPANKEKDTGVVSQALTCQIEGPGISSYTSDPTQAGESLKSCLEEALALIPQAQHPETPTFLGSTAGMRLLSQKNSSQARDILAAVSQTLSKSPVDFWGAKILAGQDEGAFGWITINYVLGMLLKYSSGQWILPEEGMLVGALDLGGASTQISFVPQGPILDQSTQVTFRLYGANYSVYTHSYLCFGRDQILNRLLAKLAQDRLSSQVAPVRHPCYHSGYQAILPLSSLYDSPCIHTTDSLNHTQNLTVEGTGDPGNCVVALRSLFNFSSCKGQKDCAFNGIYQPPVHGQFYAFSNFYYTFHFLNLTSRQSLNTVNDTVWKFCQKPWKLVEVSYPGQERWLRDYCASGLYILVLLLEGYKFSEETWPNIQFQKQAGDTDIGWTLGFMLNLTGMIPAEAPTHWRAQSYSIWTAGVVFAVLTLVAILGAAAIQIFWTQD
modifications: PEPTIDE (1)...(497) Mouse HTPDase8
On to B1, for which the “activity in absence of divalent cations” value in the test with mouse NTPDase8 [1] (1 mM EDTA and 1 mM EGTA, any of the substrates tested) is “no activity could be detected”. Besides, the “pH of optimal activity” value with mouse NTPDase8 [1] (ADPase activity, evaluated from pH 4.0 to 11.0) is listed as roughly 6.4. The “pH range in which highly active” value in the test with mouse NTPDase8 [1] (ATPase and ADPase activity, evaluated from pH 4.0 to 11.0) is listed as 5.5–7.0. In the test with mouse NTPDase8 [1] (in the presence of Ca2+), the “ratio of hydrolysis ATP/ADP” value came to 1.6±0.3 and the “ratio of hydrolysis UTP/UDP” value is on record as 2.1±0.3. In test [3], the “inhibition of platelet aggregation” value came out at 53%.

B2: mNTPDase1: mouse NTPDase1 protein extract from transfected COS cells (protein, UniProt P55772 1-510, looked up)
Ectonucleoside triphosphate …: MEDIKDSKVKRFCSKNILIILGFTSILAVIALIAVGLTQNKPLPENVKYGIVLDAGSSHTNLYIYKWPAEKENDTGVVQQLEECQVKGPGISKYAQKTDEIGAYLAECMELSTELIPTSKHHQTPVYLGATAGMRLLRMESEQSADEVLAAVSTSLKSYPFDFQGAKIITGQEEGAYGWITINYLLGRFTQEQSWLSLISDSQKQETFGALDLGGASTQITFVPQNSTIESPENSLQFRLYGEDYTVYTHSFLCYGKDQALWQKLAKDIQVSSGGVLKDPCFNPGYEKVVNVSELYGTPCTKRFEKKLPFDQFRIQGTGDYEQCHQSILELFNNSHCPYSQCAFNGVFLPPLHGSFGAFSAFYFVMDFFKKVAKNSVISQEKMTEITKNFCSKSWEETKTSYPSVKEKYLSEYCFSGAYILSLLQGYNFTDSSWEQIHFMGKIKDSNAGWTLGYMLNLTNMIPAEQPLSPPLPHSTYIGLMVLFSLLLVAVAITGLFIYSKPSYFWKEAV
modifications: COS cell extract
notes: mouse NTPDase1 protein extract from transfected COS cells
Take B2: the “inhibition of platelet aggregation” value in test [3] worked out at 100%.

The term Km denotes the concentration of substrate that gives half-maximal velocity.
